Results: US20180185408A1, “ANTIFUNGAL NYLON-3 POLYMERS AND COMBINATION THERAPY USING THEM TO TREAT FUNGAL INFECTIONS” (priority 2016, published 2018)
Converted amounts (≈) assume the structure as drawn. “And” between values parts separate entries of the source, which are not always exact repeats. Identical values can stand only once. Like-named read-outs stand apart in the source and are kept apart here.

Legend:
[1] = tested on: Aspergillus spp.; experiment: microbe, parasite or virus in culture
[2] = tested on: Pseudogymnoascus destructans; experiment: MIC100 against dermatophytes (conidia, 12°C, seven days); format: cell-based; conditions: Pseudogymnoascus destructans isolate ATC MYA-4855
Description: (§1) The final group of fungi tested for sensitivity to nylon-3 polymers were dermatophytes. In contrast to the other filamentous fungi tested, three of these isolates were evaluated following a modified version of the CLSI M38-A methodology (using hyphal fragments in liquid culture, because of difficulties in obtaining conidia). […] Mixed efficacy of the nylon-3 polymers was observed across the four species of dermatophytes tested. […] The activity against P. destructans, the causative agent of White Nose syndrome in bats, and just one of many emerging fungal pathogens threatening wildlife is encouraging because there are few options at present for preventing the spread of this devastating pathogen. The facility with which nylon-3 polymers can be modified could provide opportunities for the development of topical agents with high specificity for particular fungi.

[3] = tested on: Aspergillus fumigatus; experiment: Checkerboard microdilution synergy (FIC); format: cell-based; conditions: for MIC: Aspergillus fumigatus
[4] = tested on: A. flavus; experiment: MIC100 against species of the Aspergillus genus; format: cell-based; conditions: Aspergillus flavus isolate NRRL3357
From the text: We assessed the antifungal activity of MM-TM, DM-TM, and NM against 18 different species within the genus Aspergillus.

[5] = tested on: Aspergillus terreus; experiment: microbe, parasite or virus in culture
[6] = tested on: Trichophyton rubrum; experiment: MIC100 against dermatophytes (modified CLSI M38-A); format: cell-based; conditions: ATCC28188; Trichophyton rubrum isolate ATCC 28188
Description: as §1

[7] = tested on: Microsporum canis; experiment: MIC100 against dermatophytes (modified CLSI M38-A); format: cell-based; conditions: Microsporum canis isolate UW10
Description: as §1

[8] = tested on: Trichophyton tonsurans; experiment: MIC100 against dermatophytes (modified CLSI M38-A); format: cell-based; conditions: CBS112818; Trichophyton tonsurans isolate CBS 112818
Description: as §1

[9] = MM:TM with Itraconazole, isolate F11628 (Resistance), […] 10^5 cells/mL
[10] = MM:TM with Itraconazole, isolate F16216 (Resistance), […] 10^5 cells/mL
[11] = MM:TM with ITRA, isolate 08-12-12-13 Cyp51 [TR34/L98H], Avg., 48 hours, 35° C.
[12] = MM:TM with ITRA, isolate 08-19-02-61 Cyp51 [TR34/L98H], Avg., 48 hours, 35° C.
[13] = MM:TM with ITRA, isolate 08-31-08-91 Cyp51 [TR34/L98H], Avg., 48 hours, 35° C.
[14] = MM:TM with ITRA, isolate 08-36-03-25 Cyp51 [TR34/L98H], Avg., 48 hours, 35° C.
[15] = MM:TM with ITRA, isolate 12-7505220 Cyp51 [TR34/L98H], Avg, 48 hours, 35° C.
[16] = MM:TM with ITRA, isolate 12-7505446 Cyp51 [TR34/L98H], Avg., 48 hours, 35° C.
[17] = MM:TM with ITRA, isolate D5 Cyp51 [G54E], Avg., 48 hours, 35° C.
[18] = MM:TM with ITRA, isolate D6 Cyp51 [G54V], Avg., 48 hours, 35° C.
[19] = MM:TM with ITRA, isolate D9 Cyp51 [M220K], Avg., 48 hours, 35° C.

Compound: CCC(C)n1ncn(-c2ccc(N3CCN(c4ccc(OCC5COC(Cn6cncn6)(c6ccc(Cl)cc6Cl)O5)cc4)CC3)cc2)c1=O (stereo not drawn) [Itraconazole, itraconazole]
- MIC [1]: ~1 µM (≈ 0.706 µg/mL)
- MIC [2]: 0.13 µg/mL (≈ 0.184 µM)
- MIC azole combination ([3]; 08-19-02-61 Cyp51 [TR34/L98H], ITRA in combination with MM:TM, OD600, 48 h, 35° C.): >48 µg/mL and 48 µg/mL
- FICazole ([3]; 08-19-02-61 Cyp51 [TR34/L98H], ITRA with MM:TM): 1.000 and 0.500
- MIC azole combination ([3]; 08-31-08-91 Cyp51 [TR34/L98H], ITRA in combination with MM:TM, OD600, 48 h, 35° C.): >48 µg/mL
- FICazole ([3]; 08-31-08-91 Cyp51 [TR34/L98H], ITRA with MM:TM): 1.000
- MIC azole combination ([3]; 08-36-03-25 Cyp51 [TR34/L98H], ITRA in combination with MM:TM, OD600, 48 h, 35° C.): >48 µg/mL
- FICazole ([3]; 08-36-03-25 Cyp51 [TR34/L98H], ITRA with MM:TM): 1.000
- FICazole ([3]; AF293, ITRA with MM:TM): 0.143 and 0.198 and 0.210
- MIC ([3]; 48 h, CEA10, ITRA as single agent, 35° C.): > 1 µg/mL
- MIC ([3]; 48 h, CEA10, MM:TM with Itraconazole, single agent, 48 h, read-out: MIC Alone): > 1.4 µM
- MIC ([3]; 48 h, F11628, ITRA as single agent, 35° C.): 48 µg/mL
- MIC ([3]; 48 h, F16216, ITRA as single agent, 35° C.): 32 µg/mL
- MIC ([3]; 48 h, MM:TM with ITRA, […], Avg., 48 hours, 35° C.): 1.06 µM
- MIC [3, 9]: 48 µg/mL
- MIC [3, 10]: 32 µg/mL
- MIC Combined ([3]; CEA10, MM:TM with Itraconazole in combination, 48 h): 0.3 µM
- MIC azole combination ([3]; D5 Cyp51 [G54E], ITRA in combination with MM:TM, OD600, 48 h, 35° C.): >48 µg/mL
- FICazole ([3]; D5 Cyp51 [G54E], ITRA with MM:TM): 1.000
- MIC azole combination ([3]; D7 Cyp51 [WT], ITRA in combination with MM:TM, OD600, 48 h, 35° C.): 0.19 µg/mL and 0.375 µg/mL
- FICazole ([3]; D7 Cyp51 [WT], ITRA with MM:TM): 0.253 and 0.500
- MIC azole combination ([3]; D9 Cyp51 [M220K], ITRA in combination with MM:TM, OD600, 48 h, 35° C.): >48 µg/mL
- FICazole ([3]; D9 Cyp51 [M220K], ITRA with MM:TM): 1.000
- MIC azole combination ([3]; F11628, ITRA in combination with MM:TM, OD600, 48 h, 35° C.): 1.06 µM
- MIC azole combination ([3]; F16216, ITRA in combination with MM:TM, OD600, 48 h, 35° C.): 85.03 µM
- FICazole ([3]; F16216, ITRA with MM:TM): 0.750 and 1.000 and 0.938
- MIC azole combination ([3]; MM:TM with ITRA, […], Avg., 48 hours, 35° C.): 0.4 µM
- FICazole [3, 11]: 0.917
- MIC azole combination [3, 11]: 70.15 µM
- FICazole [3, 12]: 0.75
- MIC azole combination [3, 12]: 102.04 µM
- FICazole [3, 13]: 1.000
- MIC azole combination [3, 13]: >68.02 µM
- FICazole [3, 14]: 1.000
- MIC azole combination [3, 14]: >68.02 µM
- FICazole [3, 15]: 0.917
- MIC azole combination [3, 15]: 70.15 µM
- FICazole [3, 16]: 0.035
- MIC azole combination [3, 16]: 0.67 µM
- FICazole [3, 17]: 1.000
- MIC azole combination [3, 17]: >68.02 µM
- FICazole [3, 18]: 0.172
- MIC azole combination [3, 18]: 18.96 µM
- FICazole [3, 19]: 1.000
- MIC azole combination [3, 19]: >68.02 µM
- FICazole [3, 9]: 0.008
- FICazole [3, 10]: 1.000
- increase in efficacy in the presence of MM:TM ([3]; azole-resistant strain F11628): > 100 fold
- MIC [4]: < 1 µg/mL
- MIC [5]: 1.4 µM (≈ 0.988 µg/mL)
- MIC ([5]; 48 h): 1 µg/mL and 1.4 µM
- MIC [6]: 1 µg/mL (≈ 1.42 µM)
- MIC [7]: 1 µg/mL (≈ 1.42 µM)
- MIC [8]: 0.13 µg/mL (≈ 0.184 µM)
